Test [1] deals with type II collagen. Description: Phenotype analysis with immunohistochemical tests on human chondrocytes. It is filed as cell-based. How it is done:
The evaluation of the chondrocyte phenotype of fresh cells extracted from human cartilage tissue samples and after 4, 7 and 10 days' growth in medium containing chondroitin or chondroitin sulphate was conducted with immunohistochemical tests, using the Envision+(DaKo) kit which uses an antibody for type II collagen, considered to be a specific marker for chondrocyte differentiation (Stokes et al., Biochem. J., 2001, 360:461-470).

Test [2] has as its system Escherichia coli strain ATCC 25922. Description: Inhibition of bacterial growth on plate, E. coli. It counts as cell-based. How it is done:
The antibacterial activity of chondroitin (C) and chondroitin sulphate (CS) on the growth of Escherichia coli ATCC 25922 and Enterococcus faecalis ATCC 19433 on a solid medium in vitro was examined. The concentrations explored ranged from 40 μg/mL to 40 mg/mL of C or CS as final concentrations in the medium. Brain-heart infusion (Oxoid) was used as culture medium for E. coli ATCC 25922, and M17 (Oxoid) for E. faecalis ATCC 19433; both media were adjusted to the same pH and the same osmolarity before being solidified by adding agar and cooled. 100 μL of a bacterial suspension containing 10^2, 10^3 or 10^4 bacteria/mL was plated as inoculum. The plates inoculated were incubated in shakers in air at 37° C. for 16 h. The number of colonies was then counted on control plates in the absence of the substances under study and on plates at the various concentrations of C and CS. The data from the experiments for the two micro-organisms, conducted in triplicate for each of the conditions, are shown in tables 7 and 8.

Test [3] deals with HaCat cells. Description: Wound-healing test by time-lapse microscopy (keratinocyte growth). It counts as cell-based, human. Particulars: for time to wound repair (closure of the cut): HaCat confluent layer with cut, time-lapse, control closes after 40 h; for effect on the repair process: concentration of 0.1 w/v. On the procedure:
HaCat cells, an immortalised cell line of human keratinocytes, are used as model system. The HaCat cells are grown and amplified in Dulbecco's Modified Eagle Medium (DMEM) containing 10% foetal bovine serum (FBS)+1% Pen-Strep solution (10,000 units of penicillin-G/mL and 10 mg of streptomycin/mL in saline solution) in an incubator for cell cultures (37° C., 5% CO2 in humid air). The wound-healing experiments are conducted by time-lapse optical microscopy, a technique that allows cell behaviour to be monitored for lengthy times (2-4 days) in terms of adhesion, proliferation and motility. The system consists of an inverted optical microscope (Zeiss Axiovert 200), a thermostatic bath (LAUDA Ecoline), a CO2 microincubator with geometry such as to house plates of variable dimensions (from 6 to 96 wells), and a control unit for the output gases (air and CO2). The instrument is also equipped with a digital video camera and a control motor, which allows the incubator to move along directions x, y and z so that the images selected by the operator can be recorded and acquired at pre-set intervals.
The system thus assembled allows the cells to be maintained in an environment that reproduces the optimum conditions for cell growth (atmosphere with 5% v/v of CO2 in humid air and temperature of 37±0.1° C.), and monitored throughout the experiment. The system is also equipped with software which allows accurate analysis of the images. In particular, the instrumentation is equipped with automated software which allows wound repair to be calculated in wound-healing tests and provides data about the repair rate and cell migration rate, which are important parameters for evaluating the biorevitalising effect of substances that can accelerate or inhibit wound repair in vitro. […]

Where [4] appears, read: 40 μg/mL, 10 bacteria inoculated.
[5] abbreviates: 40 μg/mL, 100 bacteria inoculated.
Where [6] appears, read: 40 μg/mL, 1000 bacteria inoculated.
[7] abbreviates: 400 μg/mL, 10 bacteria inoculated.
Where [8] appears, read: 400 μg/mL, 100 bacteria inoculated.
[9] abbreviates: 400 μg/mL, 1000 bacteria inoculated.
[10] abbreviates: 4 mg/mL, 10 bacteria inoculated.
[11] abbreviates: 4 mg/mL, 100 bacteria inoculated.
The mark [12] stands for this setting: 4 mg/mL, 1000 bacteria inoculated.
The mark [13] stands for this setting: 40 mg/mL, 10 bacteria inoculated.
[14] abbreviates: 40 mg/mL, 100 bacteria inoculated.
The mark [15] stands for this setting: 40 mg/mL, 1000 bacteria inoculated.

chondroitin: the “positivity to type II collagen” value in test [1] (after 4 days' treatment) was “strong positivity to type II collagen”; in test [1] (longer times (7 and 10 days)), “only maintained for longer times (7 and 10 days) in the cells treated with chondroitin”. Also, the Inhibition factor is 1.3 in test [2] (40 μg/mL), 9 in test [2] (400 μg/mL), 66 in test [2] (4 mg/mL) and 1000 in test [2] (40 mg/mL). Further, the “Qualitative valuation of inhibition” value is on record as “mild” in test [2] (40 μg/mL), “significant” in test [2] (400 μg/mL), “high” in test [2] (4 mg/mL) and “total inhibition of growth” in test [2] (40 mg/mL). In addition, the “CFU after 16 h” value in test [2] (setting [4]) came to 7 ± 2 CFU; in test [2] (setting [5]) it was 80 ± 5 CFU; in test [2] (setting [6]), 800 ± 70 CFU; in test [2] (setting [7]), 2 ± 1 CFU; in test [2] (setting [8]) it was 10 ± 2 CFU; in test [2] (setting [9]), 120 ± 30 CFU. The “CFU after 16 h” value stood at 0 CFU in test [2] (setting [10]); 1 ± 1 CFU in test [2] (setting [11]); 20 ± 4 CFU in test [2] (setting [12]); 0 CFU in test [2] (setting [13]); 0 CFU in test [2] (setting [14]); 0 CFU in test [2] (setting [15]). Moreover, the “time to wound repair (closure of the cut)” value in test [3] is “less than 20 h”. The “effect on the repair process” value in test [3] is on record as “accelerates the repair process”.

Consider “chondroitin sulphate [CS, reference compound]”, for which the “positivity to type II collagen” value in test [1] (after 4 days' treatment) is listed as “strong positivity to type II collagen”. Also, the Inhibition factor was 1 in test [2] (40 μg/mL), 2 in test [2] (400 μg/mL), 10 in test [2] (4 mg/mL) and 330 in test [2] (40 mg/mL). The “CFU after 16 h” value in test [2] (setting [4]) is listed as 7 ± 2 CFU; in test [2] (setting [5]), 85 ± 7 CFU; in test [2] (setting [6]), 860 ± 70 CFU; in test [2] (setting [7]), 5 ± 1 CFU; in test [2] (setting [8]), 50 ± 5 CFU; in test [2] (setting [9]) it was 400 ± 70 CFU. Besides, the “CFU after 16 h” value amounted to 0 CFU in test [2] (setting [10]); 9 ± 2 CFU in test [2] (setting [11]); 100 ± 10 CFU in test [2] (setting [12]); 0 CFU in test [2] (setting [13]); 0 CFU in test [2] (setting [14]); 3 ± 1 CFU in test [2] (setting [15]). Also, the “Qualitative valuation of inhibition” value in test [2] (400 μg/mL) is reported as “mild”; in test [2] (4 mg/mL), “significant”; in test [2] (40 mg/mL), “high”. For the same substance, the “time to wound repair (closure of the cut)” value in test [3] was more than 70 h. Also, the “effect on the repair process” value in test [3] is listed as “slows it”.
